Results reported in ChEMBL document CHEMBL1201862, “PubChem BioAssay data set” (2004).
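Step 1: Grow cells in 96-well plates. Step 2: Expose to compound for 48 hours at 5 concentrations. Step 3: Interpolate endpoints linearly; if unreached, use highest concentration. The concentration for 50% growth inhibition is given as GI50.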 Active and inactive are the calls of the source. Rule as the data show it: active = GI50 up to about 1.1 µM and inactive = higher.

Key:
Assay in all cases: growth of human tumour cells (NCI), 48 h
MCF7 = test system: MCF7
HOP-92 = test system: HOP-92
HCT-15 = test system: HCT-15
UO-31 = test system: UO-31
UACC-62 = test system: UACC-62
K562 = test system: K562
SNB-19 = test system: SNB-19
HCT-116 = test system: HCT-116
PC-3 = test system: PC-3
IGROV-1 = test system: IGROV-1
Malme-3M = test system: Malme-3M
CCRF-CEM = test system: CCRF-CEM
ACHN = test system: ACHN
SN12C = test system: SN12C
NCI-H522 = test system: NCI-H522
A498 = test system: A498
UACC-257 = test system: UACC-257
SF-295 = test system: SF-295
SF-539 = test system: SF-539
T47D = test system: T47D

Q: How did the GI50 (MCF7) turn out when O=c1c2sc(=S)n(-c3ccc(F)cc3)c2ncn1/N=C/c1ccc(F)cc1F was run?
A: 41.5 µM (inactive)

Q: What about the GI50 (HOP-92) of the same compound?
A: 11 µM (inactive)

Q: What about the GI50 (HCT-15) of the same compound?
A: 88.9 µM

Q: And the GI50 (UO-31)?
A: 24.9 µM (inactive)

Q: What about the GI50 (UACC-62) of the same compound?
A: 27.7 µM (inactive)

Q: And the GI50 (K562)?
A: > 100 µM (inactive)

Q: What about the GI50 (SNB-19) of the same compound?
A: 26.6 µM (inactive)

Q: And the GI50 (HCT-116)?
A: 31 µM (inactive)

Q: What about the GI50 (PC-3) of the same compound?
A: 31.6 µM (inactive)

Q: What about the GI50 (IGROV-1) of the same compound?
A: 24.6 µM (inactive)

Q: What about the GI50 (Malme-3M) of the same compound?
A: 18.7 µM (inactive)

Q: What about the GI50 (CCRF-CEM) of the same compound?
A: 63.7 µM (inactive)

Q: What about the GI50 (ACHN) of the same compound?
A: 27.5 µM (inactive)

Q: What about the GI50 (SN12C) of the same compound?
A: 31.3 µM (inactive)

Q: And the GI50 (NCI-H522)?
A: 44.5 µM (inactive)

Q: And the GI50 (A498)?
A: 19.3 µM (inactive)

Q: And the GI50 (UACC-257)?
A: 34.9 µM (inactive)

Q: And the GI50 (SF-295)?
A: 21.1 µM (inactive)

Q: How did the GI50 (MCF7) turn out when CCOc1cccc(/C=N/N=C2\C(=O)Nc3c(Cl)cc(Cl)cc32)c1O was run?
A: 57.5 µM (inactive)

Q: What about the GI50 (HOP-92) of the same compound?
A: 75.7 µM (inactive)

Q: What about the GI50 (HCT-15) of the same compound?
A: 54.6 µM

Q: And the GI50 (UO-31)?
A: 34 µM (inactive)

Q: And the GI50 (UACC-62)?
A: 58.2 µM (inactive)

Q: And the GI50 (SF-539)?
A: 53.6 µM (inactive)

Q: And the GI50 (K562)?
A: 41.1 µM (inactive)

Q: What about the GI50 (SNB-19) of the same compound?
A: > 100 µM (inactive)

Q: And the GI50 (HCT-116)?
A: 74.3 µM (inactive)

Q: What about the GI50 (PC-3) of the same compound?
A: 44.2 µM (inactive)

Q: And the GI50 (IGROV-1)?
A: 74.8 µM (inactive)

Q: What about the GI50 (Malme-3M) of the same compound?
A: > 100 µM (inactive)

Q: And the GI50 (CCRF-CEM)?
A: 31.6 µM (inactive)

Q: What about the GI50 (ACHN) of the same compound?
A: > 100 µM (inactive)

Q: And the GI50 (SN12C)?
A: 73.6 µM (inactive)

Q: What about the GI50 (A498) of the same compound?
A: 36.6 µM (inactive)

Q: What about the GI50 (UACC-257) of the same compound?
A: > 100 µM (inactive)

Q: What about the GI50 (SF-295) of the same compound?
A: 62.5 µM (inactive)

Q: Which GI50 (T47D) does the source give for COC(=O)c1c(C(=O)OC)c2ccccn2c1-c1cc(C)cc2c1C(=O)C=CC2=O here?
A: 4.21 µM (inactive)

Q: What about the GI50 (HCT-15) of the same compound?
A: 10.6 µM

Q: And the GI50 (UO-31)?
A: 2.38 µM (inactive)

Q: And the GI50 (UACC-62)?
A: 11.7 µM (inactive)

Q: What about the GI50 (SF-539) of the same compound?
A: 11 µM (inactive)

Q: And the GI50 (K562)?
A: 2.67 µM (inactive)

Q: What about the GI50 (SNB-19) of the same compound?
A: 13.7 µM (inactive)

Q: And the GI50 (HCT-116)?
A: 10.7 µM (inactive)

Q: What about the GI50 (PC-3) of the same compound?
A: 14 µM (inactive)

Q: What about the GI50 (IGROV-1) of the same compound?
A: 12.8 µM (inactive)

Q: And the GI50 (Malme-3M)?
A: 10.2 µM (inactive)

Q: And the GI50 (CCRF-CEM)?
A: 0.796 µM (active)

Q: And the GI50 (ACHN)?
A: 12.6 µM (inactive)

Q: What about the GI50 (SN12C) of the same compound?
A: 12.7 µM (inactive)

Q: And the GI50 (NCI-H522)?
A: > 10 µM (inactive)

Q: What about the GI50 (A498) of the same compound?
A: 12.8 µM (inactive)

Q: And the GI50 (UACC-257)?
A: 3.43 µM (inactive)

Q: What about the GI50 (SF-295) of the same compound?
A: 12.2 µM (inactive)

Q: Which GI50 (T47D) does the source give for O=C(O)CSc1cc(-c2ccccc2)nc2ccccc12 here?
A: 57.9 µM (inactive)

Q: What about the GI50 (HOP-92) of the same compound?
A: 72.3 µM (inactive)

Q: What about the GI50 (HCT-15) of the same compound?
A: 43.6 µM

Q: What about the GI50 (UO-31) of the same compound?
A: 42.8 µM (inactive)

Q: And the GI50 (UACC-62)?
A: 48.3 µM (inactive)

Q: And the GI50 (K562)?
A: 33.3 µM (inactive)

Q: And the GI50 (SNB-19)?
A: > 100 µM (inactive)

Q: And the GI50 (HCT-116)?
A: 5.41 µM (inactive)

Q: And the GI50 (PC-3)?
A: 35.2 µM (inactive)

Q: What about the GI50 (IGROV-1) of the same compound?
A: 57.7 µM (inactive)

Q: And the GI50 (Malme-3M)?
A: 22.8 µM (inactive)

Q: And the GI50 (ACHN)?
A: 71.1 µM (inactive)

Q: And the GI50 (SN12C)?
A: 36.6 µM (inactive)

Q: And the GI50 (NCI-H522)?
A: 22.6 µM (inactive)

Q: What about the GI50 (A498) of the same compound?
A: 28.5 µM (inactive)

Q: What about the GI50 (UACC-257) of the same compound?
A: 71.9 µM (inactive)

Q: And the GI50 (SF-295)?
A: 45.5 µM (inactive)

Q: How did the GI50 (HOP-92) turn out when O=[N+]([O-])c1cc(/C=N\NS(=O)(=O)c2ccc(Cl)cc2)c(O)c([N+](=O)[O-])c1 was run?
A: 36.3 µM (inactive)

Q: What about the GI50 (HCT-15) of the same compound?
A: 21.4 µM

Q: And the GI50 (UO-31)?
A: 71.4 µM (inactive)

Q: What about the GI50 (UACC-62) of the same compound?
A: 32.4 µM (inactive)

Q: And the GI50 (SF-539)?
A: 23.3 µM (inactive)

Q: What about the GI50 (K562) of the same compound?
A: 31.1 µM (inactive)

Q: What about the GI50 (SNB-19) of the same compound?
A: 20.9 µM (inactive)

Q: And the GI50 (HCT-116)?
A: 30.1 µM (inactive)

Q: What about the GI50 (IGROV-1) of the same compound?
A: 74.8 µM (inactive)

Q: What about the GI50 (Malme-3M) of the same compound?
A: 36.6 µM (inactive)

Q: What about the GI50 (CCRF-CEM) of the same compound?
A: 24.4 µM (inactive)

Q: What about the GI50 (ACHN) of the same compound?
A: 49.8 µM (inactive)

Q: What about the GI50 (SN12C) of the same compound?
A: 25.6 µM (inactive)

Q: And the GI50 (NCI-H522)?
A: 24.5 µM (inactive)

Q: And the GI50 (A498)?
A: 35.7 µM (inactive)

Q: What about the GI50 (UACC-257) of the same compound?
A: 66.5 µM (inactive)

Q: And the GI50 (SF-295)?
A: 32.9 µM (inactive)

Q: With CN1CCOC(C(NC(=O)c2ccccc2)c2ccccc2)C1=O (centres undefined) as the compound, how does the GI50 (HOP-92) read?
A: > 100 µM (inactive)

Q: And the GI50 (HCT-15)?
A: > 100 µM

Q: What about the GI50 (UO-31) of the same compound?
A: > 100 µM (inactive)

Q: What about the GI50 (UACC-62) of the same compound?
A: > 100 µM (inactive)

Q: What about the GI50 (SF-539) of the same compound?
A: > 100 µM (inactive)

Q: And the GI50 (K562)?
A: > 100 µM (inactive)

Q: And the GI50 (SNB-19)?
A: > 100 µM (inactive)

Q: What about the GI50 (HCT-116) of the same compound?
A: > 100 µM (inactive)

Q: What about the GI50 (IGROV-1) of the same compound?
A: > 100 µM (inactive)

Q: What about the GI50 (Malme-3M) of the same compound?
A: > 100 µM (inactive)

Q: And the GI50 (CCRF-CEM)?
A: > 100 µM (inactive)

Q: What about the GI50 (ACHN) of the same compound?
A: > 100 µM (inactive)

Q: What about the GI50 (SN12C) of the same compound?
A: > 100 µM (inactive)

Q: And the GI50 (NCI-H522)?
A: > 100 µM (inactive)

Q: What about the GI50 (A498) of the same compound?
A: > 100 µM (inactive)

Q: And the GI50 (UACC-257)?
A: > 100 µM (inactive)

Q: And the GI50 (SF-295)?
A: > 100 µM (inactive)

Q: Which GI50 (HOP-92) does the source give for CN1C(c2ccccc2)CC(=NO)CC1c1ccccc1 (centres undefined) here?
A: 92.7 µM (inactive)

Q: And the GI50 (HCT-15)?
A: 37.9 µM

Q: What about the GI50 (UO-31) of the same compound?
A: 26.4 µM (inactive)

Q: And the GI50 (UACC-62)?
A: 39.8 µM (inactive)

Q: And the GI50 (SF-539)?
A: 41.2 µM (inactive)

Q: What about the GI50 (K562) of the same compound?
A: 29.4 µM (inactive)

Q: And the GI50 (SNB-19)?
A: > 100 µM (inactive)

Q: What about the GI50 (HCT-116) of the same compound?
A: 19.3 µM (inactive)

Q: What about the GI50 (IGROV-1) of the same compound?
A: > 100 µM (inactive)

Q: What about the GI50 (Malme-3M) of the same compound?
A: 34.8 µM (inactive)

Q: What about the GI50 (CCRF-CEM) of the same compound?
A: 28.2 µM (inactive)

Q: And the GI50 (ACHN)?
A: 41.4 µM (inactive)

Q: What about the GI50 (SN12C) of the same compound?
A: 24.9 µM (inactive)

Q: What about the GI50 (NCI-H522) of the same compound?
A: 25.6 µM (inactive)

Q: What about the GI50 (A498) of the same compound?
A: 82 µM (inactive)

Q: What about the GI50 (UACC-257) of the same compound?
A: 55.1 µM (inactive)

Q: And the GI50 (SF-295)?
A: 41.5 µM (inactive)

Q: What does the source list for O=C(C[n+]1ccccc1)NNC(=O)/C(=C/c1ccc2c(c1)OCO2)NC(=O)c1ccccc1?
A: GI50 (HOP-92): > 100 µM (inactive); GI50 (HCT-15): 28.6 µM; GI50 (UO-31): > 70.8 µM (inactive); GI50 (UACC-62): > 67.9 µM (inactive); GI50 (SF-539): 29.4 µM (inactive); GI50 (K562): > 77.4 µM (inactive); GI50 (SNB-19): 68.9 µM (inactive); GI50 (HCT-116): 68.9 µM (inactive); GI50 (IGROV-1): 44.7 µM (inactive); GI50 (Malme-3M): > 81.8 µM (inactive); GI50 (CCRF-CEM): 25.9 µM (inactive); GI50 (ACHN): > 100 µM (inactive); GI50 (SN12C): > 100 µM (inactive); GI50 (NCI-H522): 29 µM (inactive); GI50 (A498): > 100 µM (inactive); GI50 (UACC-257): > 100 µM (inactive); GI50 (SF-295): > 79.3 µM (inactive)
